Laboratory results published in patent publication US11708344B2, “Flavone derivatives for the treatment and prophylaxis of hepatitis B virus disease” (Hoffmann-La Roche Inc., priority 2018, dated 2023).
pIC50: −log10 of the molar value.

What was measured:
[1] = tested on: HBeAg (surrogate marker for cccDNA) in HepDES19 cells; assay: Engineered HepDES19 primary screen assay (HBeAg ELISA); type: cell-based, HBV; details: Hepatitis B virus, HepDES19, 120 h, read-out: IC50 (HBeAg level, HepDES19 primary screen assay), HepDES19 cells, 5 days compound incubation, HBeAg ELISA
Summary of the method: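 IC50 values come from 4-parameter logistic fits of HBeAg ELISA signal, the cccDNA surrogate, with CCK-8 run in parallel for viability. Compounds at half-log dilutions with 1% DMSO were applied for 5 days at 37 °C to HepDES19 cells previously cultured 8 days without Tet.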

[2] = Human microsome stability assay; type: in vitro ADME; details: human liver microsomes, 1 μM test compound, 0.5 mg/mL microsomal protein, 37° C., pH 7.4, 0-30 minutes
Summary of the method: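 Parent compound remaining was measured by LC-MS/MS at 0, 3, 6, 9, 15 and 30 min, following ACN quench. Reactions held 1 μM compound and 0.5 mg/mL human liver microsomal protein in pH 7.4 phosphate buffer at 37 °C, started by NADPH regeneration (1 mM NADP, 1 mM MgCl2); controls lacked NADPH.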

Structure (SMILES)	pIC50 [1]	Clearance of Human microsome [2] [mL/min/kg]
O=C(O)COc1cc(C(F)(F)F)ccc1-c1cc(=O)c2cccc(Cl)c2o1 [Example A051, 2-[2-(8-chloro-4-oxo-chromen-2-yl)-5-(trifluoromethyl)phenoxy]acetic acid]	5.62	6.15
COc1ccc(OC[C@H]2C[C@H](C(=O)O)C2)c(-c2cc(=O)c3cccc(Cl)c3o2)c1 [Example B027-B]	4.96	6.15
COc1cc(O[C@H]2C[C@@H](C(=O)NS(C)(=O)=O)C2)c(-c2cc(=O)c3cccc(Cl)c3o2)cc1C [Example B050-A, Cis-3-[2-(8-chloro-4-oxo-chromen-2-yl)-5-methoxy-4-methyl-phenoxy]-N-methylsulfonyl-cyclobutanecarboxamide]	5.15	6.15
Cc1cc(OCCC(=O)O)c(-c2cc(=O)c3cccc(Cl)c3o2)cc1OC(F)(F)F [Example A019, 3-[2-(8-chloro-4-oxo-chromen-2-yl)-5-methyl-4-(trifluoromethoxy)phenoxy]propanoic acid]	5.53	6.15
CC(C)c1ccc(-c2cc(=O)c3cccc(Cl)c3o2)c(O[C@H]2C[C@H](C(=O)O)C2)c1 [Example B020-B, Trans-3-[2-(8-chloro-4-oxo-chromen-2-yl)-5-isopropyl-phenoxy]cyclobutanecarboxylic acid]	5.03	8.46
CS(=O)(=O)NC(=O)[C@H]1C[C@@H](Oc2cc(Br)ccc2-c2cc(=O)c3cccc(Cl)c3o2)C1 [Example B044-A, cis-3-[5-bromo-2-(8-chloro-4-oxo-chromen-2-yl)phenoxy]-N-methylsulfonyl-cyclobutanecarboxamide]	5.34	6.15
O=C(COCCCOc1cc(C(F)(F)F)ccc1-c1cc(=O)c2cccc(Cl)c2o1)NS(=O)(=O)C1CC1 [Example C117, 2-[3-[2-(8-chloro-4-oxo-chromen-2-yl)-5-(trifluoromethyl)phenoxy]propoxy]-N-cyclopropylsulfonyl-acetamide]	5.60	7.45
O=c1cc(-c2ccc(N3CCCC3)cc2OCCO[C@H]2C[C@@H](C(=O)O)C2)oc2c(Cl)cccc12 [Example C068, cis-3-[2-[2-(8-chloro-4-oxo-chromen-2-yl)-5-pyrrolidin-1-yl-phenoxy]ethoxy]cyclobutanecarboxylic acid]	5.32	6.15
Cc1ccc(-c2cc(=O)c3cccc(Cl)c3o2)c(OCC(=O)N2CCC[C@H]2C(=O)NS(C)(=O)=O)c1 [Example A093, (2S)-1-[2-[2-(8-chloro-4-oxo-chromen-2-yl)-5-methyl-phenoxy]acetyl]-N-methylsulfonyl-pyrrolidine-2-carboxamide]	5.88	6.15
O=c1cc(-c2cc(Cl)c(Br)cc2OCCO[C@H]2C[C@@H](C(=O)O)C2)oc2c(Cl)cccc12 [Example C057-A, Cis-3-[2-[5-bromo-4-chloro-2-(8-chloro-4-oxo-chromen-2-yl)phenoxy]ethoxy]cyclobutanecarboxylic acid]	5.30	8.0
Cc1c(-c2ccc(C(F)(F)F)cc2OCCC(=O)O)oc2c(Cl)cccc2c1=O [Example A034, 3-[2-(8-chloro-3-methyl-4-oxo-chromen-2-yl)-5-(trifluoromethyl)phenoxy]propanoic acid]	4.87	6.15
O=C(O)CCOc1cc(C(F)(F)F)ccc1-c1cc(=O)c2cc(F)cc(Cl)c2o1 [Example A003, 3-[2-(8-chloro-6-fluoro-4-oxo-chromen-2-yl)-5-(trifluoromethyl)phenoxy]propanoic acid]	6.44	6.15
Cc1cc(OCCO[C@H]2C[C@@H](C(=O)O)C2)c(-c2cc(=O)c3cccc(Cl)c3o2)cc1C(F)F [Example C075, Cis-3-[2-[2-(8-chloro-4-oxo-chromen-2-yl)-4-(difluoromethyl)-5-methyl-phenoxy]ethoxy]cyclobutanecarboxylic acid]	4.96	6.15
CCc1ccc(-c2cc(=O)c3cccc(Cl)c3o2)c(O[C@H]2C[C@H](C(=O)O)C2)c1 [Example B019-B, Trans-3-[2-(8-chloro-4-oxo-chromen-2-yl)-5-ethyl-phenoxy]cyclobutanecarboxylic acid]	5.44	8.92
COc1cc(OCCCC(=O)O)c(-c2cc(=O)c3cccc(Cl)c3o2)cc1C [Example A060, 4-[2-(8-chloro-4-oxo-chromen-2-yl)-5-methoxy-4-methyl-phenoxy]butanoic acid]	5.27	6.15
Cc1cc(-c2cc(=O)c3cccc(Cl)c3o2)c(O[C@H]2C[C@@H](C(=O)NS(C)(=O)=O)C2)cc1Br [Example B049-A, Cis-3-[5-bromo-2-(8-chloro-4-oxo-chromen-2-yl)-4-methyl-phenoxy]-N-methylsulfonyl-cyclobutanecarboxamide]	4.91	7.5
CCOc1ccc(-c2cc(=O)c3cccc(Cl)c3o2)c(OCCO[C@H]2C[C@H](C(=O)O)C2)c1 [Example C035-B, Trans-3-[2-[2-(8-chloro-4-oxo-chromen-2-yl)-5-ethoxy-phenoxy]ethoxy]cyclobutanecarboxylic acid]	4.75	9.78
O=C(O)[C@H]1C[C@H](Oc2cc(C(F)(F)F)ccc2-c2cc(=O)c3cccc(Cl)c3o2)CN1S(=O)(=O)c1ccccc1 [Example B087, (2R,4S)-1-(benzenesulfonyl)-4-[2-(8-chloro-4-oxo-chromen-2-yl)-5-(trifluoromethyl)phenoxy]pyrrolidine-2-carboxylic acid]	5.52	6.15
COc1cc(OC2CC(C(=O)NS(C)(=O)=O)C2)c(-c2cc(=O)c3cccc(Cl)c3o2)cc1OC (stereo not shown) [Example B057, 3-[2-(8-chloro-4-oxo-chromen-2-yl)-4,5-dimethoxy-phenoxy]-N-methylsulfonyl-cyclobutanecarboxamide]	5.97	6.15
O=c1cc(-c2ncc(Br)cc2O[C@H]2C[C@H](C(=O)O)C2)oc2c(Cl)cccc12 [Example B029, Trans-3-[[5-bromo-2-(8-chloro-4-oxo-chromen-2-yl)-3-pyridyl]oxy]cyclobutanecarboxylic acid]	4.85	6.15
O=c1cc(-c2cc(OC(F)F)c(OC(F)F)cc2OCCO[C@H]2C[C@@H](C(=O)O)C2)oc2c(Cl)cccc12 [Example C087, cis-3-[2-[2-(8-chloro-4-oxo-chromen-2-yl)-4,5-bis(difluoromethoxy)phenoxy]ethoxy]cyclobutanecarboxylic acid]	5.20	6.15
O=c1cc(-c2ccc(Br)cc2OCCO[C@H]2C[C@@H](C(=O)O)C2)oc2c(Cl)cc(F)cc12 [Example C028, Cis-3-[2-[5-bromo-2-(8-chloro-6-fluoro-4-oxo-chromen-2-yl)phenoxy]ethoxy]cyclobutanecarboxylic acid]	5.48	8.85
COc1cc(-c2cc(=O)c3cccc(Cl)c3o2)c(O[C@H]2C[C@@H](C(=O)NS(C)(=O)=O)C2)cc1Br [Example B053-A, Cis-3-[5-bromo-2-(8-chloro-4-oxo-chromen-2-yl)-4-methoxy-phenoxy]-N-methylsulfonyl-cyclobutanecarboxamide]	5.47	6.15
Cc1cc(Br)c(OC2CC(C(=O)O)C2)c(-c2cc(=O)c3cccc(Cl)c3o2)c1 (stereo not shown) [Example B009, 3-[2-bromo-6-(8-chloro-4-oxo-chromen-2-yl)-4-methyl-phenoxy]cyclobutanecarboxylic acid]	5.22	6.19
O=c1cc(-c2cccc(Br)c2OCCO[C@H]2C[C@@H](C(=O)O)C2)oc2c(Cl)cc(F)cc12 [Example C070, Cis-3-[2-[2-bromo-6-(8-chloro-6-fluoro-4-oxo-chromen-2-yl)phenoxy]ethoxy]cyclobutanecarboxylic acid]	4.88	9.42
O=C(O)[C@@H]1C[C@H](Oc2cc(C(F)(F)F)ccc2-c2cc(=O)c3cccc(Cl)c3o2)CN1S(=O)(=O)c1ccccc1 [Example B080, (2S,4S)-1-(benzenesulfonyl)-4-[2-(8-chloro-4-oxo-chromen-2-yl)-5-(trifluoromethyl)phenoxy]pyrrolidine-2-carboxylic acid]	5.92	6.15
O=C(O)CCOc1cc(C(F)(F)F)ccc1-c1cc(=O)c2ccc(F)c(Cl)c2o1 [Example A031, 3-[2-(8-chloro-7-fluoro-4-oxo-chromen-2-yl)-5-(trifluoromethyl)phenoxy]propanoic acid]	6.42	6.15
COc1cc(-c2cc(=O)c3cccc(Cl)c3o2)c(OCCC(=O)O)cc1C [Example A015, 3-[2-(8-chloro-4-oxo-chromen-2-yl)-4-methoxy-5-methyl-phenoxy]propanoic acid]	4.95	6.15
COc1cc(Cl)c2oc(-c3ccc(C(F)(F)F)cc3OCCC(=O)O)cc(=O)c2c1 [Example A033, 3-[2-(8-chloro-6-methoxy-4-oxo-chromen-2-yl)-5-(trifluoromethyl)phenoxy]propanoic acid]	6.32	6.15
